Legend:
Gal4-RXRα total mutant = target: T1, Gal4-RXRα total mutant (Homo sapiens, UniProt P19793, E453R/F450Y/K284E/V280T/V298T); assay: Gal4-RXRα total mutant / VP16-SRC1-2 hybrid reporter gene assay in HEK293T cells
T1 sequence (P19793 225-462 V280T/K284E/V298T/F450Y/E453R): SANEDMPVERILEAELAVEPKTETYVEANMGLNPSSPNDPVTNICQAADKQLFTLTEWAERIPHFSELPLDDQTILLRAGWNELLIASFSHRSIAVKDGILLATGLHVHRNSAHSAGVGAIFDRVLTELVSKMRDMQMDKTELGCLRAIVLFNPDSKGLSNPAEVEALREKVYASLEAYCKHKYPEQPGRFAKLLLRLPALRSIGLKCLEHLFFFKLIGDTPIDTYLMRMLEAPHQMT

RXRα homodimer = target: T2, RXRα homodimer (Homo sapiens, UniProt P19793); assay: RXRα homodimer formation HTRF assay, sGFP-RXRα LBD titrated against biotinylated RXRα LBD (wildtype); assay type: binding; conditions: 10 μM ligand compared with no ligand
T2 construct: His10-tag with TEV site (N, cleaved yes); made in house; host or cells: E. coli T7 express (co-expressed with GroEL/ES)
T2 sequence (P19793 226-462) 1: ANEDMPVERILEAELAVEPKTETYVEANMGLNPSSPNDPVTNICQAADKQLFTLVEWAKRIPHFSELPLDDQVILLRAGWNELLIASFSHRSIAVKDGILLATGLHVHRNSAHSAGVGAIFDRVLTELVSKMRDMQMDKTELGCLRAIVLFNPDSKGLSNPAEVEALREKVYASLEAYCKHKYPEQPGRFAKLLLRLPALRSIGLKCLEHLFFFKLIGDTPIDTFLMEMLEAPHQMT
T2 sequence (P19793 226-462) 2: T2 sequence (P19793 226-462) 1

`CC1(C)CCC(C)(C)c2cc(C3(c4ccc(C(=O)O)cc4)OCCO3)ccc21` [SR11237] was tested, and the “transactivation of reporter gene expression” value (Gal4-RXRα total mutant; RXRα mutant, compared with DMSO control) was “substantial increase in transactivation”, the “transactivation by the RXRα mutant in comparison with RXRα wt” value (Gal4-RXRα total mutant; at ≥ 0.1 μM SR11237) was “markedly reduced” and the “effect on RXRα homodimer formation” value (RXRα homodimer) was “significantly destabilized the homodimer”.

Source: publication PMC8258697 (The Journal of Biological Chemistry, 2021)
